The results in this text go back to the OligoGym collection.

This data set concerns the target ATXN2. Kind of data set: mouse, dose not given. Particulars: ASO.

HELM strings list units from the 5' end as sugar, base in round brackets, then linkage (d deoxyribose, r ribose, m 2'-O-methyl, p phosphodiester). Strings are as the collection lists them; they lack the last nucleoside at the 3' end of the tested compound. [moe] = 2'-O-(2-methoxyethyl) (MOE); [sp] = phosphorothioate linkage; [m5C] = 5-methylcytosine

The substance “RNA1{[moe](A)[sp].[moe](T)p.[moe](T)p.[moe]([m5C])p.[moe](T)p.d(G)[sp].d(T)[sp].d(A)[sp].d([m5C])[sp].d(T)[sp].d(T)[sp].d(T)[sp].d(T)[sp].d([m5C])[sp].d(T)[sp].[moe]([m5C])p.[moe](A)p.[moe](T)[sp].[moe](G)}$$$$ (last 3' nucleoside missing)” returned a 3 h FOB score of 1 score 0-7.
“RNA1{[moe](G)[sp].[moe](G)[sp].[moe](A)[sp].[moe](G)[sp].[moe]([m5C])[sp].d(T)[sp].d(G)[sp].d(G)[sp].d(A)[sp].d(G)[sp].d(A)[sp].d(A)[sp].d([m5C])[sp].d([m5C])[sp].d(A)[sp].[moe](T)[sp].[moe](G)[sp].[moe](A)[sp].[moe](G)}$$$$ (last 3' nucleoside missing)” showed a 3 h FOB score of 7 score 0-7.
Turning to “RNA1{[moe]([m5C])[sp].[moe](T)p.[moe](G)p.[moe](T)p.[moe](A)[sp].d([m5C])[sp].d(T)[sp].d(T)[sp].d(T)[sp].d(T)[sp].d([m5C])[sp].d(T)[sp].d([m5C])[sp].[moe](A)p.[moe](T)p.[moe](G)[sp].[moe](T)}$$$$ (last 3' nucleoside missing)”, the 3 h FOB score worked out at 3.5 score 0-7.
In turn, “RNA1{[moe](T)[sp].[moe]([m5C])p.[moe]([m5C])p.[moe](A)p.[moe](A)p.d(G)[sp].d(T)[sp].d(A)[sp].d(A)[sp].d([m5C])[sp].d(A)[sp].d(G)[sp].d(T)[sp].d(G)[sp].d(T)[sp].[moe](A)p.[moe](G)p.[moe](A)[sp].[moe](A)}$$$$ (last 3' nucleoside missing)” displayed a 3 h FOB score of 4 score 0-7.
In the case of “RNA1{[moe](A)[sp].[moe](A)p.[moe](T)p.[moe](G)p.[moe]([m5C])p.d([m5C])[sp].d(G)[sp].d(T)[sp].d(T)[sp].d(T)[sp].d(T)[sp].d(T)[sp].d(A)[sp].d([m5C])[sp].d(T)[sp].[moe]([m5C])p.[moe](T)p.[moe]([m5C])[sp].[moe](A)}$$$$ (last 3' nucleoside missing)”, the 3 h FOB score is 0 score 0-7.
Take “RNA1{[moe](A)[sp].[moe]([m5C])p.[moe](A)p.[moe]([m5C])[sp].[moe](A)[sp].d(G)[sp].d(T)[sp].d(T)[sp].d(T)[sp].d([m5C])[sp].d(A)[sp].d([m5C])[sp].d(T)[sp].d(A)[sp].d(G)[sp].[moe](G)p.[moe](T)p.[moe](T)[sp].[moe]([m5C])}$$$$ (last 3' nucleoside missing)”: the 3 h FOB score worked out at 2 score 0-7.
“RNA1{[moe](T)[sp].[moe]([m5C])p.[moe](A)p.[moe](G)p.[moe](A)p.d([m5C])[sp].d(T)[sp].d(T)[sp].d([m5C])[sp].d(T)[sp].d(T)[sp].d(G)[sp].d(T)[sp].d(T)[sp].d(G)[sp].[moe](T)p.[moe](T)p.[moe](G)[sp].[moe](T)}$$$$ (last 3' nucleoside missing)” came in with a 3 h FOB score of 2 score 0-7.
“RNA1{[moe]([m5C])[sp].[moe](G)p.[moe](T)p.[moe](G)p.[moe](G)p.d(T)[sp].d(G)[sp].d(G)[sp].d(T)[sp].d(G)[sp].d(T)[sp].d(G)[sp].d([m5C])[sp].d(G)[sp].d([m5C])[sp].[moe](A)p.[moe](T)p.[moe](G)[sp].[moe](T)}$$$$ (last 3' nucleoside missing)” gave a 3 h FOB score of 6.25 score 0-7.
“RNA1{[moe](G)[sp].[moe](T)p.[moe](A)p.[moe]([m5C])p.[moe](T)p.d(T)[sp].d([m5C])[sp].d(A)[sp].d([m5C])[sp].d(A)[sp].d(T)[sp].d(T)[sp].d(T)[sp].d(G)[sp].d(G)[sp].[moe](A)p.[moe](G)p.[moe]([m5C])[sp].[moe]([m5C])}$$$$ (last 3' nucleoside missing)” returned a 3 h FOB score of 1 score 0-7.
Regarding “RNA1{[moe](T)[sp].[moe](G)p.[moe](G)p.[moe](T)p.d(G)[sp].d(G)[sp].d(T)[sp].d(G)[sp].d(T)[sp].d(G)[sp].d([m5C])[sp].d(G)[sp].d([m5C])[sp].d(A)[sp].[moe](T)p.[moe](G)p.[moe](T)p.[moe](A)[sp].[moe](G)}$$$$ (last 3' nucleoside missing)”, the 3 h FOB score came out at 6.75 score 0-7.
